Active and inactive are the calls of the source. The calls are words filed in the database; no cut-off is given here.
Experiments:
Escherichia coli [1] = experiment: Antibacterial activity against Escherichia coli MTCC 739 at 100 ug/ml by cup-plate method; format: functional; settings: read-out: DIZ
Escherichia coli [2] = experiment: Antibacterial activity against Escherichia coli MTCC 739 at 50 ug/ml by cup-plate method; format: functional; settings: read-out: DIZ
Pseudomonas aeruginosa [3] = experiment: Antibacterial activity against Pseudomonas aeruginosa MTCC 2453 at 300 ug/ml by cup-plate method; format: functional; settings: read-out: DIZ
Pseudomonas aeruginosa [4] = experiment: Antibacterial activity against Pseudomonas aeruginosa MTCC 2453 at 100 ug/ml by cup-plate method; format: functional; settings: read-out: DIZ
Pseudomonas aeruginosa [5] = experiment: Antibacterial activity against Pseudomonas aeruginosa MTCC 2453 at 200 ug/ml by cup-plate method; format: functional; settings: read-out: DIZ
Pseudomonas aeruginosa [6] = experiment: Antibacterial activity against Pseudomonas aeruginosa MTCC 2453 at 50 ug/ml by cup-plate method; format: functional; settings: read-out: DIZ
Bacillus subtilis [7] = experiment: Antibacterial activity against Bacillus subtilis MTCC 121 at 300 ug/ml by cup plate method; format: functional; settings: read-out: DIZ
Bacillus subtilis [8] = experiment: Antibacterial activity against Bacillus subtilis MTCC 121 at 200 ug/ml by cup plate method; format: functional; settings: read-out: DIZ
Bacillus subtilis [9] = experiment: Antibacterial activity against Bacillus subtilis MTCC 121 at 50 ug/ml by cup plate method; format: functional; settings: read-out: DIZ
Bacillus subtilis [10] = experiment: Antibacterial activity against Bacillus subtilis MTCC 121 at 100 ug/ml by cup plate method; format: functional; settings: read-out: DIZ
Staphylococcus aureus [11] = experiment: Antibacterial activity against Staphylococcus aureus MTCC 96 at 300 ug/ml by cup-plate method; format: functional; settings: read-out: DIZ
Staphylococcus aureus [12] = experiment: Antibacterial activity against Staphylococcus aureus MTCC 96 at 200 ug/ml by cup-plate method; format: functional; settings: read-out: DIZ
Staphylococcus aureus [13] = experiment: Antibacterial activity against Staphylococcus aureus MTCC 96 at 100 ug/ml by cup-plate method; format: functional; settings: read-out: DIZ
Staphylococcus aureus [14] = experiment: Antibacterial activity against Staphylococcus aureus MTCC 96 at 50 ug/ml by cup-plate method; format: functional; settings: read-out: DIZ
Escherichia coli [15] = experiment: Antibacterial activity against Escherichia coli MTCC 739 by cup-plate method; format: functional, organism-based
Pseudomonas aeruginosa [16] = experiment: Antibacterial activity against Pseudomonas aeruginosa MTCC 2453 by cup-plate method; format: functional, organism-based
Bacillus subtilis [17] = experiment: Antibacterial activity against Bacillus subtilis MTCC 121 by cup plate method; format: functional, organism-based
Staphylococcus aureus [18] = experiment: Antibacterial activity against Staphylococcus aureus MTCC 96 by cup-plate method; format: functional, organism-based
Candida albicans = experiment: Antifungal activity against Candida albicans MTCC 227 at 50 to 300 ug/ml by cup-plate method; format: functional, organism-based
Escherichia coli [19] = experiment: Antibacterial activity against Escherichia coli MTCC 739 at 300 ug/ml by cup-plate method; format: functional; settings: read-out: DIZ
Escherichia coli [20] = experiment: Antibacterial activity against Escherichia coli MTCC 739 at 200 ug/ml by cup-plate method; format: functional; settings: read-out: DIZ

For `O=C1N/C(=N\c2ccc(Cl)cc2)S/C1=C\c1cccc([N+](=O)[O-])c1`, the zone of inhibition at 100 µg/mL (Escherichia coli [1]) was 8 mm, the zone of inhibition at 50 µg/mL (Escherichia coli [2]) was 7 mm and the zone of inhibition at 300 µg/mL (Pseudomonas aeruginosa [3]) was 11 mm. The zone of inhibition at 100 µg/mL (Pseudomonas aeruginosa [4]) was 9 mm, the zone of inhibition at 200 µg/mL (Pseudomonas aeruginosa [5]) was 9 mm and the zone of inhibition at 50 µg/mL (Pseudomonas aeruginosa [6]) was 8 mm. The zone of inhibition at 300 µg/mL (Bacillus subtilis [7]) was 11 mm, the zone of inhibition at 200 µg/mL (Bacillus subtilis [8]) was 10 mm and the zone of inhibition at 50 µg/mL (Bacillus subtilis [9]) was 9 mm. For the same molecule, the zone of inhibition at 100 µg/mL (Bacillus subtilis [10]) was 10 mm, the zone of inhibition at 300 µg/mL (Staphylococcus aureus [11]) was 10 mm and the zone of inhibition at 200 µg/mL (Staphylococcus aureus [12]) was 9 mm. The zone of inhibition at 100 µg/mL (Staphylococcus aureus [13]) was 9 mm, the zone of inhibition at 50 µg/mL (Staphylococcus aureus [14]) was 8 mm and the Activity (Escherichia coli [15]) was “Dose-dependent effect”. The Activity (Pseudomonas aeruginosa [16]) was “Dose-dependent effect”, the Activity (Bacillus subtilis [17]) was “Dose-dependent effect” and the Activity (Staphylococcus aureus [18]) was “Dose-dependent effect”. The Activity (Candida albicans) was “inactive”, the zone of inhibition at 300 µg/mL (Escherichia coli [19]) was 10 mm and the zone of inhibition at 200 µg/mL (Escherichia coli [20]) was 9 mm.
In the case of `COc1cc(/C=C2\S/C(=N/c3cccc(Cl)c3)NC2=O)ccc1O`, the zone of inhibition at 100 µg/mL (Escherichia coli [1]) is reported as 8 mm, the zone of inhibition at 50 µg/mL (Escherichia coli [2]) is reported as 7 mm and the zone of inhibition at 300 µg/mL (Pseudomonas aeruginosa [3]) is reported as 9 mm. For the same molecule, the zone of inhibition at 100 µg/mL (Pseudomonas aeruginosa [4]) was 8 mm, the zone of inhibition at 200 µg/mL (Pseudomonas aeruginosa [5]) was 9 mm and the zone of inhibition at 50 µg/mL (Pseudomonas aeruginosa [6]) was 6 mm. The zone of inhibition at 300 µg/mL (Bacillus subtilis [7]) was 9 mm, the zone of inhibition at 200 µg/mL (Bacillus subtilis [8]) was 8 mm and the zone of inhibition at 50 µg/mL (Bacillus subtilis [9]) was 7 mm. It also gave a zone of inhibition at 100 µg/mL (Bacillus subtilis [10]) of 8 mm, a zone of inhibition at 300 µg/mL (Staphylococcus aureus [11]) of 8 mm and a zone of inhibition at 200 µg/mL (Staphylococcus aureus [12]) of 8 mm. The zone of inhibition at 100 µg/mL (Staphylococcus aureus [13]) was 7 mm, the zone of inhibition at 50 µg/mL (Staphylococcus aureus [14]) was 6 mm and the Activity (Escherichia coli [15]) was “Dose-dependent effect”. The Activity (Pseudomonas aeruginosa [16]) was “Dose-dependent effect”, the Activity (Bacillus subtilis [17]) was “Dose-dependent effect” and the Activity (Staphylococcus aureus [18]) was “Dose-dependent effect”. For the same molecule, the Activity (Candida albicans) was “inactive”, the zone of inhibition at 300 µg/mL (Escherichia coli [19]) was 9 mm and the zone of inhibition at 200 µg/mL (Escherichia coli [20]) was 9 mm.
`COc1cc(/C=C2\S/C(=N/c3ccc(F)c(Cl)c3)NC2=O)ccc1O` gave a zone of inhibition at 100 µg/mL (Escherichia coli [1]) of 8 mm, a zone of inhibition at 50 µg/mL (Escherichia coli [2]) of 7 mm and a zone of inhibition at 300 µg/mL (Pseudomonas aeruginosa [3]) of 10 mm. The zone of inhibition at 100 µg/mL (Pseudomonas aeruginosa [4]) was 9 mm, the zone of inhibition at 200 µg/mL (Pseudomonas aeruginosa [5]) was 10 mm and the zone of inhibition at 50 µg/mL (Pseudomonas aeruginosa [6]) was 7 mm. For the same molecule, the zone of inhibition at 300 µg/mL (Bacillus subtilis [7]) was 10 mm, the zone of inhibition at 200 µg/mL (Bacillus subtilis [8]) was 8 mm and the zone of inhibition at 50 µg/mL (Bacillus subtilis [9]) was 7 mm. The zone of inhibition at 100 µg/mL (Bacillus subtilis [10]) was 8 mm, the zone of inhibition at 300 µg/mL (Staphylococcus aureus [11]) was 11 mm and the zone of inhibition at 200 µg/mL (Staphylococcus aureus [12]) was 9 mm. For the same molecule, the zone of inhibition at 100 µg/mL (Staphylococcus aureus [13]) was 8 mm, the zone of inhibition at 50 µg/mL (Staphylococcus aureus [14]) was 7 mm and the Activity (Escherichia coli [15]) was “Dose-dependent effect”. For the same molecule, the Activity (Pseudomonas aeruginosa [16]) was “Dose-dependent effect”, the Activity (Bacillus subtilis [17]) was “Dose-dependent effect” and the Activity (Staphylococcus aureus [18]) was “Dose-dependent effect”. The Activity (Candida albicans) was “inactive”, the zone of inhibition at 300 µg/mL (Escherichia coli [19]) was 9 mm and the zone of inhibition at 200 µg/mL (Escherichia coli [20]) was 8 mm.
`O=C1N/C(=N\c2cccc(Cl)c2)S/C1=C\c1ccccc1` was tested, and the zone of inhibition at 100 µg/mL (Escherichia coli [1]) was 7 mm, the zone of inhibition at 50 µg/mL (Escherichia coli [2]) was 7 mm and the zone of inhibition at 300 µg/mL (Pseudomonas aeruginosa [3]) was 9 mm. For the same molecule, the zone of inhibition at 100 µg/mL (Pseudomonas aeruginosa [4]) was 7 mm, the zone of inhibition at 200 µg/mL (Pseudomonas aeruginosa [5]) was 8 mm and the zone of inhibition at 50 µg/mL (Pseudomonas aeruginosa [6]) was 6 mm. It also gave a zone of inhibition at 300 µg/mL (Bacillus subtilis [7]) of 7 mm, a zone of inhibition at 200 µg/mL (Bacillus subtilis [8]) of 7 mm and a zone of inhibition at 50 µg/mL (Bacillus subtilis [9]) of 6 mm. It also gave a zone of inhibition at 100 µg/mL (Bacillus subtilis [10]) of 7 mm, a zone of inhibition at 300 µg/mL (Staphylococcus aureus [11]) of 9 mm and a zone of inhibition at 200 µg/mL (Staphylococcus aureus [12]) of 8 mm. For the same molecule, the zone of inhibition at 100 µg/mL (Staphylococcus aureus [13]) was 7 mm, the zone of inhibition at 50 µg/mL (Staphylococcus aureus [14]) was 6 mm and the Activity (Escherichia coli [15]) was “Dose-dependent effect”. The Activity (Pseudomonas aeruginosa [16]) was “Dose-dependent effect”, the Activity (Bacillus subtilis [17]) was “Dose-dependent effect” and the Activity (Staphylococcus aureus [18]) was “Dose-dependent effect”. The Activity (Candida albicans) was “inactive”, the zone of inhibition at 300 µg/mL (Escherichia coli [19]) was 8 mm and the zone of inhibition at 200 µg/mL (Escherichia coli [20]) was 7 mm.
In the case of `O=C1N/C(=N\c2cccc(Cl)c2)S/C1=C\c1ccc(Cl)cc1`, the zone of inhibition at 100 µg/mL (Escherichia coli [1]) is reported as 9 mm, the zone of inhibition at 50 µg/mL (Escherichia coli [2]) is reported as 7 mm and the zone of inhibition at 300 µg/mL (Pseudomonas aeruginosa [3]) is reported as 8 mm. It also gave a zone of inhibition at 100 µg/mL (Pseudomonas aeruginosa [4]) of 8 mm, a zone of inhibition at 200 µg/mL (Pseudomonas aeruginosa [5]) of 8 mm and a zone of inhibition at 50 µg/mL (Pseudomonas aeruginosa [6]) of 7 mm. The zone of inhibition at 300 µg/mL (Bacillus subtilis [7]) was 10 mm, the zone of inhibition at 200 µg/mL (Bacillus subtilis [8]) was 10 mm and the zone of inhibition at 50 µg/mL (Bacillus subtilis [9]) was 7 mm. The zone of inhibition at 100 µg/mL (Bacillus subtilis [10]) was 8 mm, the zone of inhibition at 300 µg/mL (Staphylococcus aureus [11]) was 10 mm and the zone of inhibition at 200 µg/mL (Staphylococcus aureus [12]) was 9 mm. For the same molecule, the zone of inhibition at 100 µg/mL (Staphylococcus aureus [13]) was 8 mm, the zone of inhibition at 50 µg/mL (Staphylococcus aureus [14]) was 7 mm and the Activity (Escherichia coli [15]) was “Dose-dependent effect”. For the same molecule, the Activity (Pseudomonas aeruginosa [16]) was “Dose-dependent effect”, the Activity (Bacillus subtilis [17]) was “Dose-dependent effect” and the Activity (Staphylococcus aureus [18]) was “Dose-dependent effect”. The Activity (Candida albicans) was “inactive”, the zone of inhibition at 300 µg/mL (Escherichia coli [19]) was 9 mm and the zone of inhibition at 200 µg/mL (Escherichia coli [20]) was 9 mm.

— ChEMBL document CHEMBL3044899, “Effect of chloro and fluoro groups on the antimicrobial activity of 2,5-disubstituted 4-thiazolidinones: a comparative study” (2012)
